What all share (experiment): relative viability (nuclei count vs DMSO), 5 days (fraction); higher = more cells survive
Compound in assay [1]: Cc1ccc2nc(NCCN)c3ncc(C)n3c2c1 + CS(=O)(=O)CCNCc1ccc(-c2ccc3ncnc(Nc4ccc(OCc5cccc(F)c5)c(Cl)c4)c3c2)o1 [Lapatinib] (partner 2 µM)
The gist of the method: (§1)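 Lung cancer cell lines were seeded in 1536-well plates and dosed by pin tool the next day, with either a single drug or a fixed anchor-drug dose combined with five library-drug doses (not always all listed) spaced in √10 steps. Five days later, one step fixed the cells and stained their nuclei (final 0.05% Triton X-100, 1% formaldehyde, 1 ug/ml Hoechst), and nuclei were counted on 4× images. Relative viability is the nuclei count in treated wells divided by the count in vehicle wells, and each value is the median of duplicate plates.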

Compound in assay [2]: Cc1ccc2nc(NCCN)c3ncc(C)n3c2c1 + Cc1nc(Nc2ncc(C(=O)Nc3c(C)cccc3Cl)s2)cc(N2CCN(CCO)CC2)n1 [Dasatinib] (partner 0.075 µM)
The gist of the method: as §1

Compound in the assay “Salubrinal + Crizotinib”: O=C(/C=C/c1ccccc1)NC(NC(=S)Nc1cccc2cccnc12)C(Cl)(Cl)Cl [Salubrinal] + C[C@@H](Oc1cc(-c2cnn(C3CCNCC3)c2)cnc1N)c1c(Cl)ccc(F)c1Cl [Crizotinib] (partner 1 µM)
The gist of the method:
as §1

Compound in the assay “Salubrinal + Olaparib”: O=C(/C=C/c1ccccc1)NC(NC(=S)Nc1cccc2cccnc12)C(Cl)(Cl)Cl [Salubrinal] + O=C(c1cc(Cc2n[nH]c(=O)c3ccccc23)ccc1F)N1CCN(C(=O)C2CC2)CC1 [Olaparib] (partner 8 µM)
A digest of the protocol:
as §1

Take NCI-H322M: the relative viability in assay [1] (first compound 0.04 µM) came out at 0.535; in assay [1] (first compound 0.1265 µM), 0.593; in assay [1] (first compound 0.4 µM), 0.586; in assay [1] (first compound 1.265 µM), 0.59; in assay [1] (first compound 4 µM), 0.603; in assay [2] (first compound 0.04 µM), 0.251. Moreover, the relative viability in assay [2] (first compound 0.1265 µM) stood at 0.267; in assay [2] (first compound 0.4 µM), 0.259; in assay [2] (first compound 1.265 µM), 0.269; in assay [2] (first compound 4 µM), 0.263; in the assay with Salubrinal + Crizotinib (first compound 0.08 µM) it was 0.898; with Salubrinal + Crizotinib (first compound 0.253 µM), 0.901. Besides, the relative viability came out at 1.08 with Salubrinal + Crizotinib (first compound 0.8 µM); 0.872 with Salubrinal + Crizotinib (first compound 2.53 µM); 0.944 with Salubrinal + Crizotinib (first compound 8 µM); 0.806 with Salubrinal + Olaparib (first compound 0.08 µM); 0.783 with Salubrinal + Olaparib (first compound 0.253 µM); 0.766 in the assay with Salubrinal + Olaparib (first compound 0.8 µM). Further, the relative viability with Salubrinal + Olaparib (first compound 2.53 µM) amounted to 0.675; with Salubrinal + Olaparib (first compound 8 µM), 0.728.

For the cell line NCI-H520, the relative viability was 0.964 in assay [1] (first compound 0.04 µM); 0.853 in assay [1] (first compound 0.1265 µM); 0.866 in assay [1] (first compound 0.4 µM); 0.837 in assay [1] (first compound 1.265 µM); 0.729 in assay [1] (first compound 4 µM); 0.363 in assay [2] (first compound 0.04 µM). Further, the relative viability in assay [2] (first compound 0.1265 µM) came out at 0.208; in assay [2] (first compound 0.4 µM), 0.229; in assay [2] (first compound 1.265 µM), 0.284; in assay [2] (first compound 4 µM), 0.262; in the assay with Salubrinal + Crizotinib (first compound 0.08 µM), 0.816; with Salubrinal + Crizotinib (first compound 0.253 µM), 0.489. For the same cell line, the relative viability was 0.771 in the assay with Salubrinal + Crizotinib (first compound 0.8 µM); 0.663 with Salubrinal + Crizotinib (first compound 2.53 µM); 0.681 with Salubrinal + Crizotinib (first compound 8 µM); 0.334 with Salubrinal + Olaparib (first compound 0.08 µM); 0.361 with Salubrinal + Olaparib (first compound 0.253 µM); 0.325 with Salubrinal + Olaparib (first compound 0.8 µM). Besides, the values for the relative viability in the assay with Salubrinal + Olaparib (first compound 2.53 µM) and with Salubrinal + Olaparib (first compound 8 µM) were 0.322 and 0.338, respectively.

ABC-1: the relative viability in assay [1] (first compound 0.04 µM) worked out at 1.18; in assay [1] (first compound 0.1265 µM), 1.16; in assay [1] (first compound 0.4 µM) it was 1.12; in assay [1] (first compound 1.265 µM), 0.783; in assay [1] (first compound 4 µM) it was 1.03; in assay [2] (first compound 0.04 µM), 0.613. The relative viability was 0.573 in assay [2] (first compound 0.1265 µM); 0.501 in assay [2] (first compound 0.4 µM); 0.57 in assay [2] (first compound 1.265 µM); 0.594 in assay [2] (first compound 4 µM); 1.23 with Salubrinal + Crizotinib (first compound 0.08 µM); 0.919 with Salubrinal + Crizotinib (first compound 0.253 µM). The relative viability was found to be 1.22 with Salubrinal + Crizotinib (first compound 0.8 µM); 1.25 with Salubrinal + Crizotinib (first compound 2.53 µM); 1.02 in the assay with Salubrinal + Crizotinib (first compound 8 µM); 0.831 with Salubrinal + Olaparib (first compound 0.08 µM); 0.67 in the assay with Salubrinal + Olaparib (first compound 0.253 µM); 0.741 with Salubrinal + Olaparib (first compound 0.8 µM). Also, the relative viability came to 0.633 in the assay with Salubrinal + Olaparib (first compound 2.53 µM) and 0.8 with Salubrinal + Olaparib (first compound 8 µM).

For NCI-H1666, the relative viability in assay [1] (first compound 0.04 µM) amounted to 0.788; in assay [1] (first compound 0.1265 µM), 0.64; in assay [1] (first compound 0.4 µM), 0.505; in assay [1] (first compound 1.265 µM), 0.478; in assay [1] (first compound 4 µM) it was 0.568; in assay [2] (first compound 0.04 µM), 0.788. The relative viability in assay [2] (first compound 0.1265 µM) is 0.781; in assay [2] (first compound 0.4 µM), 0.849; in assay [2] (first compound 1.265 µM), 0.604; in assay [2] (first compound 4 µM), 0.77; in the assay with Salubrinal + Crizotinib (first compound 0.08 µM), 1.17; with Salubrinal + Crizotinib (first compound 0.253 µM), 0.852. For the same cell line, the relative viability with Salubrinal + Crizotinib (first compound 0.8 µM) was 1.14; with Salubrinal + Crizotinib (first compound 2.53 µM), 0.784; with Salubrinal + Crizotinib (first compound 8 µM), 0.94; in the assay with Salubrinal + Olaparib (first compound 0.08 µM) it was 0.713; with Salubrinal + Olaparib (first compound 0.253 µM), 0.605; with Salubrinal + Olaparib (first compound 0.8 µM), 0.713. In addition, the relative viability with Salubrinal + Olaparib (first compound 2.53 µM) came to 0.711; in the assay with Salubrinal + Olaparib (first compound 8 µM), 0.732.

For the cell line NCI-H1993, the relative viability in assay [1] (first compound 0.04 µM) worked out at 0.844; in assay [1] (first compound 0.1265 µM), 0.887; in assay [1] (first compound 0.4 µM), 0.695; in assay [1] (first compound 1.265 µM), 0.74; in assay [1] (first compound 4 µM) it was 0.629; in assay [2] (first compound 0.04 µM), 0.463. Moreover, the relative viability stood at 0.651 in assay [2] (first compound 0.1265 µM); 0.533 in assay [2] (first compound 0.4 µM); 0.497 in assay [2] (first compound 1.265 µM); 0.539 in assay [2] (first compound 4 µM); 0.795 with Salubrinal + Crizotinib (first compound 0.08 µM); 0.856 in the assay with Salubrinal + Crizotinib (first compound 0.253 µM). The relative viability with Salubrinal + Crizotinib (first compound 0.8 µM) turned out to be 0.794; in the assay with Salubrinal + Crizotinib (first compound 2.53 µM) it was 0.909; in the assay with Salubrinal + Crizotinib (first compound 8 µM), 0.941; with Salubrinal + Olaparib (first compound 0.08 µM), 0.867; with Salubrinal + Olaparib (first compound 0.253 µM), 0.932; with Salubrinal + Olaparib (first compound 0.8 µM), 0.561. The relative viability with Salubrinal + Olaparib (first compound 8 µM) was found to be 1.47.

As to NCI-H1975, the relative viability in assay [1] (first compound 0.04 µM) stood at 1.01; in assay [1] (first compound 0.1265 µM) it was 0.925; in assay [1] (first compound 0.4 µM), 0.935; in assay [1] (first compound 1.265 µM), 0.95; in assay [1] (first compound 4 µM), 0.849; in assay [2] (first compound 0.04 µM), 0.409. The relative viability in assay [2] (first compound 0.1265 µM) was found to be 0.387; in assay [2] (first compound 0.4 µM), 0.347; in assay [2] (first compound 1.265 µM), 0.359; in assay [2] (first compound 4 µM), 0.304; with Salubrinal + Crizotinib (first compound 0.08 µM) it was 1.07; with Salubrinal + Crizotinib (first compound 0.253 µM) it was 0.722. For the same cell line, the relative viability with Salubrinal + Crizotinib (first compound 0.8 µM) worked out at 1.06; with Salubrinal + Crizotinib (first compound 2.53 µM), 0.992; with Salubrinal + Crizotinib (first compound 8 µM), 0.816; with Salubrinal + Olaparib (first compound 0.08 µM) it was 0.926; with Salubrinal + Olaparib (first compound 0.253 µM) it was 0.59; in the assay with Salubrinal + Olaparib (first compound 0.8 µM), 0.777. Moreover, the figures for the relative viability with Salubrinal + Olaparib (first compound 2.53 µM) and in the assay with Salubrinal + Olaparib (first compound 8 µM) were 0.769 and 0.613, respectively.

The record behind these values is the supplement of paper PMC10307832.
